In patent US6794126B2, “Methods for preventing or inhibiting neuronal cell death” (The Trustees of Columbia University in the City of New York, priority 1996, dated 2004):

How the values were obtained:
PC12 cells [1] = assay: PC12 cell survival after SOD1 down-regulation by V-ASOD1; type: cell-based, rat
Description: (§1) PC12 cells were grown as previously described (Greene and Tishcler, 1976) on rat-tail collagen-coated dishes in RPMI 1640 medium containing 5% fetal calf serum and 10% heat-inactivated horse serum (complete medium). NGF primed PC12 cells were grown for at least 7 days in RPMI 1640 medium plus 1% horse serum and NGF (100 ng/ml). For cell survival assays involving trophic factor deprivation, cells (either naive or NGF-pretreated) were extensively washed in serum-free RPMI 1640 medium and re-plated on fresh collagen-coated 24-well dishes as previously described (Rukenstein et al., 1991) in RPMI 1640 medium lacking serum or NGF. For SOD1 down-regulation survival assays, cells were re-plated in complete medium with V-ASOD1 (vector linked antisense oligonucleotide to SOD1, 50 nM). Various concentrations of ICE inhibitors were included in the medium as indicated. Numbers of viable cells per culture were determined by quantifying intact nuclei as previously described (Rukenstein et al., 1991). Counts were performed in triplicate and reported as means±SEM.

PC12 cells [2] = assay: Addition of rhIL-1β to PC12 cultures in the presence of NGF, insulin or serum; type: cell-based; conditions: 1 μg/ml
Description: as §1

## IL-1β: recombinant human IL-1β provided by the NCI
PC12 cells [1]; IL-1β 1 μg/ml with V-ASOD1 50 nM
  effect of exogenous IL-1β on V-ASOD1 induced death: potentiates the cell death
PC12 cells [1]; IL-1β 1 μg/ml, V-ASOD1 50 nM, V-ICEinh 25 nM
  effect of exogenous IL-1β on protection by V-ICEinh: abrogates the protection
PC12 cells [1]; IL-1β 1 μg/ml, no V-ASOD1
  effect of exogenous IL-1β alone on cell death: no effect
PC12 cells [2]
  cell death on addition to PC12 cultures: did not produce cell death
